Test results taken from patent US9834541B2, “2-aminopyridine compounds” (Merck Patent GmbH, priority 2012, dated 2017).

Assays:
Wnt pathway = test: Cellular assay for Wnt pathway activity, LS174T-shl-fLuc clone 5 (LS174T-L5) luciferase reporter assay; type: cell-based; conditions: Homo sapiens; LS174T TCF luciferase reporter cells, 24 hours incubation
Source text: 1. Cellular Assay for Wnt Pathway Activity LS174T-shl-fLuc Clone 5 (LS174T-L5) Reporter Assay Principle:
This assay is based on an in-vitro luciferase activity readout. The human colon cancer cell line, LS174T was transduced with a lentivirus encoding a short half-life luciferase (with a destabilised PEST sequence construct; construct F1756): 16×TCF/LEF transcription sites—short half life firefly luciferase on a basal pTA promoter—puromycin resistance gene on an EF-1-α promoter). This construct was made using the lentiviral base vector: pCDF1-MCS2-EF1-Puro from System Biosciences (cat. # CD110B-1). The luciferase has a T1/2 of about 60 minutes.
Stable luciferase-expressing clones were selected, using 1 μg/mL puromycin selection and the clones were bulked up.
Compounds that inhibit the Wnt pathway are predicted to inhibit the induction of luciferase transcription by TCF; this will result in reduced luciferase protein production and luciferase signal readout.
Compounds were tested for their Wnt pathway inhibitory activities using the described firefly luciferase reporter cell based assay. An LS174T luciferase reporter cell line was used which contained a T-Cell Factor (TCF) dependent gene promoter firefly luciferase construct.
Compounds, in concentrations from 30 μM to 1 nM, were incubated for 24 hours on the cells. Luciferase activities were determined using the Steady Glo Luciferase Assay System (Promega) and the TOPCOUNT microplate reader (Perkin Elmer). For analysis, the obtained data were normalized against the untreated vehicle control and fitted for determination of the IC50 values using the Excel Fit application of the Excel Software (Microsoft).

[1] = CLint (intrinsic clearance) assay, liver microsomal incubation; type: in vitro ADME, human; conditions: liver microsomes, pH 7.4; human hepatic microsomes, 0.5 mg/mL protein, class symbols
Protocol: Also shown is the human hepatic microsomal intrinsic clearance (CLint), whereby the following classification is used:
2. CLint (Intrinsic Clearance) Assay
A Tecan Genesis workstation (RWS ASY 150/8) was used to perform the microsomal incubations. Analysis was carried out using a Waters ACQUITY UPLC system coupled to an ABSciex API3000 mass spectrometer. Data analysis was performed using Assay Explorer (Symyx).
Column: Acquity UPLC BEH C18, 2.1×50 mm, 1.7 um (Waters)
Mobile phases: • A=0.1% formic acid in water • B=acetonitrile
Column temperature: 50° C.
0.1 M potassium phosphate buffer pH 7.4 containing 1 mM MgCl2
15 mM NADPH in phosphate buffer
5.0 mg protein/mL liver microsomes in phosphate buffer
Each experiment consists of 12 test and 2 reference compounds. The reference compounds are incubated as a cocktail.
Dilution of test compounds was done in 2 steps from a 10 mM DMSO stock solution. First 4 μL stock solution was added to 196 μL of 20% DMSO in potassium phosphate buffer pH 7.4. In a second step 10 μL of the first dilution were added to 1890 μL potassium phosphate buffer and 100 μL internal standard solution to a final concentration of […].
100 μL of the final compound dilution were aliquoted into a 96 deep well plate. 12.5 μL liver microsomes were added to each well (0.5 mg/mL final protein concentration) and the samples preincubated for 5 min at 37° C. and 800 rpm agitation.
After the preincubation, 250 μL cold acetonitrile were added to the 0 min samples to prevent a reaction. Following this, 12.5 μL NADPH solution were added to all wells to start the incubation, with the exception of the 0 min and 30 min controls without cofactor, where the NADPH was substituted for phosphate buffer.
The incubations were stopped after 5, 10, 20 and 30 min by adding 250 μL cold acetonitrile to the individual wells.
The quenched samples were then centrifuged at 4000 g for 1 h at 4° C. 100 μL of the supernatant were transferred into 96 well plates for analysis.
The metabolic stability of each compound was determined by measurement of the change in LC-MS/MS peak area over time. Assay Explorer software was used to automatically calculate the slope k of the decline. The intrinsic clearance (CLint) of each compound was then calculated according to the formula: CLint(μL/min/mg protein)=k1000/protein concentration.

Row | SMILES | IC50 (Wnt pathway) [nM] | microsomal CLint at 0.8 μM [1] [µL/min/mg]
1 | CN1C(=O)Cc2ccc(-c3cnc(N)c(C(F)(F)F)c3N3CCC4(CCNC4=O)CC3)cc21 [Compound 50, 8-[2-Amino-5-(1-methyl-2-oxo-2,3-dihydro-1H-indol-6-yl)-3-trifluoromethyl-pyridin-4-yl]-2,8-diaza-spiro[4.5] decan-1-one] | 817 | 10 to 50
2 | CC(C)n1ncc2ccc(-c3cnc(N)c(Cl)c3N3CCC4(CCNC4=O)CC3)cc21 [Compound 73, 8-[2-Amino-3-chloro-5-(1-isopropyl-1H-indazol-6-yl)-pyridin-4-yl]-2,8-diaza-spiro[4.5] decan-1-one] | 54 | 100 to 150
3 | Cn1ncc2cc(-c3cnc(N)c(Cl)c3N3CCC4(CC3)CNC(=O)O4)ccc21 [Compound 21, 8-[2-Amino-3-chloro-5-(1-methyl-1H-indazol-5-yl)-pyridin-4-yl]-1-oxa-3,8-diaza-spiro[4.5] decan-2-one] | 110 | 10 to 50
4 | Nc1ncc(-c2ccc3c(c2)CC(=O)N3)c(N2CCC3(CCNC3=O)CC2)c1Cl [Compound 33, 8-[2-Amino-3-chloro-5-(2-oxo-2,3-dihydro-1H-indol-5-yl)-pyridin-4-yl]-2,8-diaza-spiro[4.5] decan-1-one] | 154 | 10 to 50
5 | Nc1ncc(-c2ccc3cc[nH]c3c2)c(N2CCC3(CC2)CNC(=O)O3)c1Cl [Compound 29, 8-[2-Amino-3-chloro-5-(1H-indol-6-yl)-pyridin-4-yl]-1-oxa-3,8-diaza-spiro[4.5] decan-2-one] | 30 | 100 to 150
6 | Cn1ncc2cc(-c3cnc(N)c(C(F)(F)F)c3N3CCC(C(N)=O)CC3)ccc21 [Compound 47, 2′-Amino-5′-(1-methyl-1H-indazol-5-yl)-3′-trifluoromethyl-3,4,5,6-tetrahydro-2H-[1,4′] bipyridinyl-4-carboxylic acid amide] | 110 | 50 to 100
7 | Cn1cc(-c2ccc(-c3cnc(N)c(C(F)(F)F)c3N3CCC4(CC3)CC(=O)NC4=O)cc2)cn1 [Compound 52, 8-{2-Amino-5-[4-(1-methyl-1H-pyrazol-4-yl)-phenyl]-3-trifluoromethyl-pyridin-4-yl}-2,8-diaza-spiro[4.5] decane-1,3-dione] | 1.2 | 10 to 50
8 | Nc1ncc(-c2ccc3c(c2)CCS3(=O)=O)c(N2CCC3(CCNC3=O)CC2)c1Cl [Compound 62, 8-[2-Amino-3-chloro-5-(1,1-dioxo-2,3-dihydro-1H-1I6-benzo[b]thiophen-5-yl)-pyridin-4-yl]-2,8-diaza-spiro[4.5] decan-1-one] | 450 | 10 to 50
9 | CN1c2ccc(-c3cnc(N)c(Cl)c3N3CC[C@H](C#N)[C@@H](O)C3)cc2CS1(=O)=O [Compound 65, (3R,4R)-2′-Amino-3′-chloro-3-hydroxy-5′-(1-methyl-2,2-dioxo-2,3-dihydro-1H-2I6-benzo[c]isothiazol-5-yl)-3,4,5,6-tetrahydro-2H-[1,4′] bipyridinyl-4-carbonitrile] | 14 | 10 to 50
10 | CCN1c2ccc(-c3cnc(N)c(Cl)c3N3CCC4(CCNC4=O)CC3)cc2CS1(=O)=O [Compound 58, 8-[2-Amino-3-chloro-5-(1-ethyl-2,2-dioxo-2,3-dihydro-1H-2I6-benzo[c]isothiazol-5-yl)-pyridin-4-yl]-2,8-diaza-spiro[4.5] decan-1-one] | 7.6 | ≥ 150
11 | CN1c2ccc(-c3cnc(N)c(Cl)c3N3CCC4(CCNC4=O)CC3)cc2CS1(=O)=O [Compound 26, 8-(2-Amino-3-chloro-5-(1-methyl-2,2-dioxido-1,3-dihydrobenzo[c]isothiazol-5-yl)pyridin-4-yl)-2,8-diazaspiro[4.5]decan-1-one] | 6 | 100 to 150
12 | Nc1ncc(-c2ccccc2)c(N2CCC3(CCNC3=O)CC2)c1Cl [Compound 1, 8-(2-Amino-3-chloro-5-phenyl-pyridin-4-yl)-2,8-diaza-spiro[4.5]decan-1-one] | 670 | 10 to 50
